In general, inhibition refers to the relative decrease from the control value, in per cent.

Read-outs that look alike come from different tables or passages of the source.

The target of the test is T1, leukotriene B4 specific receptor on the membrane of human neutrophils (Homo sapiens, UniProt Q15722).
T1 construct: incubating neutrophils (1×10^7 cells) with 0.1-0.2 nM ^3 H-LTB4; endogenous in cells; host or cells: human peripheral blood neutrophils (buffy coats of two blood donors)
The test can be described thus: Inhibition of Binding of ^3 H-LTB4 to Peripheral Human Neutrophils. As to conditions: for inhibition at 10 µM: read-out: LTB4 Binding Inhibition; for inhibition at 1 µM: drug concentration 10^-6 M; for inhibition at 0.1 µM: drug concentration 10^-7 M. How it is done:
The effectiveness of compounds to inhibit the binding of leukotriene B4 to a specific receptor on the membrane of human neutrophils was measured by using an adaptation of a radio-ligand binding assay developed by Goldman and Goetzl, J. Immunol., 129, 1600 (1982). Other investigators have developed similar assays (see, e.g., Kreisle, et al., J. Exp. Med., 157, 628 (1983) and Lin, et al., Prostaglandins, 28, 837 (1984)).
Cells used in the assay were isolated by standard techniques of centrifugation on Ficol-Hypaque, dextran 70 sedimentation and hypotonic lysis. The following procedure was used. Freshly-prepared buffy coat layers from two individuals were obtained from a local blood donor center. The cells were mixed and diluted to 484 ml. with phosphate buffered saline containing heparin (10 units/ml) and heat-inactivated calf serum (5%). This was divided into 20 ml. aliquots and the aliquots layered on top of Ficoll-Paque (12 ml.). The material was then centrifuged at 500 g. for 40 minutes at room temperature. The resulting upper layer of platelets and mononuclear cells was discarded. The lower layer containing erythrocytes and neutrophils was retained. Buffer was added (1 ml. per 4 ml. of lower layer) and the suspension mixed. For each milliliter of this mixture, 0.33 ml. of 6% Macrodex was added. After stirring, the cels were allowed to sediment for 1 hour at 37° C. The resulting erythrocyte pellet was discarded and the neutrophil enriched supernatant fluid centrifuged at 500 g. for 10 minutes at 4° C. Erythrocytes still present in this cell pellet were lysed by incubating the cells with 5-8 ml. ice-cold distilled water for 30-45 seconds. Subsequently, the volume was made up to 50 ml. by addition of ice-cold buffer and the cells resuspended. The suspension was then centrifuged at 300 g. for 10 minutes at 4° C. The cells were finally resuspended at a cell density of 2×10^7 cells/ml in the assay buffer. This buffer Consisted of Hanks' balanced salt solution and 0.1% ovalbumin (pH 7.3).
The radio-ligand binding assay was conducted by incubating neutrophils (1×10^7 cells) with 0.1-0.2 nM ^3 H-LTB4 (sp. act. 150-220 Curies/mmol) and test compound (1×10^-5 M and 1×10^-6 M) for 10 minutes at 4° C. The amount of bound ^3 H-LTB4 was then measured and compared with the amount bound in the absence of test compound. The assay was carried out in microcentrifuge tubes by adding first 10 μl test compound dissolved in DMSO, followed by adding 20 μl ^3 H-LTB4 diluted in assay buffer, and finally adding 500 μl of the cell suspension pension. At the end of the 10 minutes incubation, 300 μl of a mixture of dibutyl and dinonyl phthalate (7:2) were added and the tubes centrifuged for 2 minutes in a microcentrifuge. The radioactivity bound to the cell pellet was measured by scintillation spectroscopy. Appropriate corrections for nonspecific bonding of ^3 H-LTB4 were made.

Setting [1] is: drug concentration 10^-5 M, 4° C., 10 minutes.

T1 sequence (Q15722 whole entry): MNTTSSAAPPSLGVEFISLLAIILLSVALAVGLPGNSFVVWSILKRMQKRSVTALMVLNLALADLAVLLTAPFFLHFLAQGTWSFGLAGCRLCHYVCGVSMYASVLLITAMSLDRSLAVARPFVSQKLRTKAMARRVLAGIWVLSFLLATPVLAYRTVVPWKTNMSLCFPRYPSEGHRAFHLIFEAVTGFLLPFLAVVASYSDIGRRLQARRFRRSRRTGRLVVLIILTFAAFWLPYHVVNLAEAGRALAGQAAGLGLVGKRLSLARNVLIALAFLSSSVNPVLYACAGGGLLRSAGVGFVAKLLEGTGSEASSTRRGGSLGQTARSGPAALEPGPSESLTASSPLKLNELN

Consider `CCc1cc(C(C)=O)c(O)cc1OCCCCc1nnn(CC(=O)O)n1` [Example 143, 5-[4-(4-Acetyl-2ethyl-5-hydroxyphenoxy)-butyl]-2H-tetrazole-2-acetic acid], for which, under setting [1], the inhibition at 10 µM amounted to 69%. Besides, the inhibition at 1 µM (4° C., 10 minutes) was found to be 27%.
For `CCc1cc(C(C)=O)c(O)cc1OCc1cccc(C(=O)O)c1` [Example 84], in that order: 81% and 28%.
For `C=CCc1cc(C(C)=O)c(O)cc1OCCCCc1nnnn1C` [Example 119, 2-Hydroxy-4-[4-(1-methyl-lH-tetrazol-5-yl)-butoxy]-5-allylacetophenone], in that order: 57% and 13%.
As for `C=CCc1cc(C(=O)CC)c(O)cc1OCCCCC#N` [Example 105, 5-[5-Hydroxy-4-(1-oxopropyl)-2-allylphenoxy]pentanenitrile], the inhibition at 10 µM under setting [1] came out at 76%. For the same compound, the inhibition at 1 µM (4° C., 10 minutes) was determined as 35%.
For `C=CCc1cc(C(C)=O)c(O)cc1OCCCCC` [Example 41, 4-Pentyloxy-2-hydroxy-5-allylaceto-phenone], in that order: 59% and 22%.
On to `CCc1cc(C(C)=O)c(O)cc1OCCCCCCCC(C)(C)C(=O)N(C)O` [Example 150, N-Methyl-N-hydroxy-9-(4-acetyl-2-ethyl-5-hydroxyphenoxy)-2,2-dimethylnonanamide], for which, under setting [1], the inhibition at 10 µM was determined as 90%. Besides, the inhibition at 1 µM (4° C., 10 minutes) came out at 59%.
For `CC(=O)c1cc(C=O)c(OCCCCC#N)cc1O` [Example 18, 5-(4-Acetyl-5-hydroxy-2-formylphenoxy)-pentanenitrile], in that order: 5% and 3%.
With `C=CCc1cc(C(C)=O)c(O)cc1OCCCCCC(=O)OC` [Example 94, 6-(4-Acetyl-5-hydroxy-2-allylphenoxy)hexanoic acid, methyl ester], the inhibition at 10 µM under setting [1] worked out at 106%. For the same compound, the inhibition at 1 µM (4° C., 10 minutes) came out at 64%.
For the compound `C=CCc1cc(C(C)=O)c(O)cc1OCCCCCCCCC#N` [Example 23, 9-(4-Aoetyl-5-hydroxy-2-allylphenoxy)-nonanenitrile], the inhibition at 10 µM under setting [1] amounted to 85%. Moreover, the inhibition at 1 µM (4° C., 10 minutes) was 50%.
In the case of `CCc1cc(C(C)=O)c(O)cc1OCc1cccc(C(F)(F)F)c1` [Example 58, 5-Ethyl-2-hydroxy-4-(3-trifluoromethyl-benzyloxy)acetophenone], under setting [1], the inhibition at 10 µM was 67%. Moreover, the inhibition at 1 µM (4° C., 10 minutes) is 22%.
For `C=CCc1cc(C(C)=O)c(O)cc1OCC#N` [Example 25, (4-Acetyl-5-hydroxy-2-allylphenoxy)-acetonitrile], in that order: 19% and 2%.
For `CCc1cc(C(C)=O)c(O)cc1OCc1ccc(C(=O)O)c(O)c1` [Example 148, 4-[(4-Acetyl-2-ethyl-5-hydroxyphenoxy)methyl]-2-hydroxybenzoic acid], in that order: 44% and 14%.
For `C=CCc1cc(C(=O)c2ccccc2)c(O)cc1OCCCCC#N` [Example 104, 5-(4-Benzoyl-5-hydroxy-2-allylphenoxy)pentanenitrile], in that order: 32% and 5%.
With `CCc1cc(C(C)=NO)c(O)cc1OCCCCCC(C)(C)C(=O)O` [Example 152, 7-{4-[-(Hydroxyimino)ethyl]-2-ethyl-5-hydroxyphenoxy}-2,2-dimethylheptanoicacid], under “4° C., 10 minutes”, the inhibition at 1 µM was 41% and the inhibition at 0.1 µM was 3%.
For the compound `CCCc1cc(C(C)=O)c(O)cc1OCCCCC#N` [Example 118, 5-(4-Acetyl-5-hydroxy-2-propylphenoxy)-pentanenitrile], the inhibition at 10 µM under setting [1] was determined as 83%. The inhibition at 1 µM (4° C., 10 minutes) is 38%.
For the compound `C=CCc1cc(C(C)=O)c(O)cc1OCCCCCCCC#N` [Example 69, 8-(4-Acetyl-5-hydroxy-2-allylphenoxy)octanenitrile], the inhibition at 10 µM under setting [1] is 88%. Where the note is “4° C., 10 minutes”, the inhibition at 1 µM is 51%.
For `CCc1cc(C(C)=O)c(O)cc1OCCCC(C)(C)C(N)=O` [Example 135, 5-(4-Acetyl-2-ethyl-5-hydroxyphenoxy)-2,2-dimethylpentamide], in that order: 95% and 55%.
As to `CCc1cc(C(C)=O)c(O)cc1OCCCCCCC(=O)NC` [Example 99, 7-(-Acetyl-2-ethyl-5-hydroxyphenoxy)N-methylheptanamide], the inhibition at 10 µM is 97%. Besides, for the setting “4° C., 10 minutes”, the inhibition at 1 µM came to 54%.
Take `CCc1cc(C(C)=O)c(O)cc1OCCCCCCC(=O)Nc1nnn[nH]1` [Example 145, 7-(4-Acetyl-2-ethyl-5-hydroxyphenoxy)-N-1H-tetrazol-5-ylheptanamide]: the inhibition at 10 µM under setting [1] is 101%. Besides, the inhibition at 1 µM (4° C., 10 minutes) stood at 85%.
For `C=CCc1cc(C(C)=O)c(O)cc1OCc1cccc(CC#N)c1` [Example 60, 3-[(4-Acetyl-5-hydroxy-2-allylphenoxy)-methyl]benzeneacetonitrile], in that order: 12% and 6%.
For `C=CCc1cc(C(C)=O)c(O)cc1OCCCCCC[S+](C)[O-]` (stereo not shown) [Example 79, 2-Hydroxy-4-[6-(methylsulfinyl)hexyloxy]-5-allylacetophenone], in that order: 96% and 51%.
As for `CCc1cc(C(C)=O)c(O)cc1OCCCCCC(C)(C)C(N)=O` [Example 101, 7-(4-Acetyl-2-ethyl-5-hydroxyphenoxy)-2,2-methylheptanamide], the inhibition at 10 µM under setting [1] came out at 101%. For the setting “4° C., 10 minutes”, the inhibition at 1 µM was 82% and the inhibition at 0.1 µM came out at 45%.
In the case of `CCc1cc(C(C)=O)c(O)cc1OCCCCc1nnnn1CC(=O)O` [Example 144, 5-[4-(4-Acetyl-2-ethyl-5-hydroxyphenoxy)-butyl]-1H-tetrazole-1-acetic acid], under setting [1], the inhibition at 10 µM is 63%. Also, the inhibition at 1 µM (4° C., 10 minutes) is 20%.
For `C=CCc1cc(C(C)=O)c(O)cc1OCCCCCC` [Example 39, 4-(Hexyloxy)-2-hydroxy-5-allylacetophenone], in that order: 50% and 9%.
For `CCCCCCc1cc(C(C)=O)c(O)cc1OCCCCC#N` [Example 29, 5-(4-Acetyl-2-hexyl-5-hydroxyphenoxy)-pentanenitrile], in that order: 51% and 12%.
For `CCc1cc(C(C)=O)c(O)cc1OCCCCCC(C)(C)C(=O)N(C)O` [Example 149, 7-(4-Acetyl-2-ethyl-5-hydroxyphenoxy)-N-hydorxy-N,2,2-trimethylheptanamide], the inhibition at 10 µM under setting [1] worked out at 97%. Also, for the setting “4° C., 10 minutes”, the inhibition at 1 µM was determined as 65% and the inhibition at 0.1 µM was found to be 6%.
Consider `C=CCc1cc(C(=O)CCCC(=O)O)c(O)cc1OCCCCC#N` [Example 106, 5-[4-(4-Cyanobutoxy)-2-hydroxy-5-allylphenyl)-5-oxopentanoic acid], for which the inhibition at 10 µM under setting [1] was 9%. The inhibition at 1 µM (4° C., 10 minutes) came to 1%.
For `CCc1cc(C(C)=O)c(O)cc1OCCCC(C)(C)C(=O)O` [Example 134, 5-(4-Acetyl-2ethyl-5-hydroxyphenoxy)-2,2-dimethylpentanoic acid], the inhibition at 10 µM under setting [1] was 93%. The inhibition at 1 µM (4° C., 10 minutes) is 45%.
For `C=CCc1cc(C(C)=O)c(O)cc1OCCCCCC#N` [Example 21, 6-(4-Acetyl-5-hydroxy-2-allylphenoxy)-hexanenitrile], in that order: 81% and 32%.
For `C=CCc1cc(C(C)=O)c(O)cc1OCCCC#N` [Example 26, 4-(4-Acetyl-5-hydroxy-2-allylphenoxy)-butanenitrile], in that order: 46% and 5%.
For `C#CCCCCOc1cc(O)c(C(C)=O)cc1CC=C` [Example 57, 4-(5-Hexynyloxy)-2-hydroxy-5-allylaceto-phenone], in that order: 73% and 29%.

(Values after US5098613A, “Anti-inflammatory agents” (Eli Lilly and Company, priority 1990, dated 1992).)
